Paper PMC11374673, “Discovery of isoquinoline sulfonamides as allosteric gyrase inhibitors with activity against fluoroquinolone-resistant bacteria” (Nature Chemistry, 2024)
Values after ≈ are worked out from the molar mass of the structure shown.

Key:
[1] = system: E. coli W3110 gyrA S97L, S83L, D87N; test: MIC against CRISPR/Cas9 gyrA point mutants; type: cell-based, Escherichia coli; settings: for MIC: Escherichia coli; for susceptibility of gyrA S97L mutant: CRISPR–Cas9 S97L
Description: MIC was determined by broth microdilution. Single-colony cultures were grown to exponential phase (OD600 of 0.5) aerobically at 37 °C. In case of strains from the Keio collection, 50 µg ml^−1 kanamycin was supplemented to the media to ascertain a homogeneous population. The bacterial suspensions were diluted 100-fold in CAMHB and 50 µl was added to a twofold serial dilution series of test compounds (50 µl per well) in polypropylene 96-well microtitre plates to reach a volume of 100 µl. The plates were sealed with breathable membranes and incubated overnight at 37 °C with constant shaking (600 r.p.m.). The MIC was determined as the lowest concentration at which no visible bacterial growth was observed as compared with the inoculum controls from the median of a minimum of triplicates.
Mutants of the DNA gyrase subunit A encoding gene (gyrA) were constructed following the protocol for gene editing via the CRISPR–Cas9 system. Strains and plasmids used are listed in Supplementary Table 15, and primers used can be found in Supplementary Table 16. The following mutations were created: S97L in E. coli W3110. Two common mutations in the gyrA gene that give resistance to fluoroquinolone antibiotics were created in E. coli W3110, namely S83L and D87N. To create the gyrA (S97L) mutants, the construct psgRNA-gyrA-M5 was assembled as follows: The 20-nt spacer sequence was introduced by PCR on pTargetF using primers gyrA_P11 and gyrA_P12, the homology-directed repair (HDR) arms were amplified from E. coli W3110 genomic DNA by PCR using primer pairs gyrA_P05 and gyrA_P013, and gyrA_P08 and gyrA_P14. The three PCR fragments generated were cloned into the SpeI and BglII digested pTargetF via Gibson assembly. To avoid off-target effects of CRISPR, besides desired point mutation for gyrA (S97L), four other silent point mutations were also included in the HDR template. Consequently, the amino acid sequence of gyrA will remain the same in the generated mutant except for the desired mutation. Similarly, constructs psgRNA-gyrA-S83L and psgRNA-gyrA-D87N were created to introduce mutations S83L and D87N in gyrA, respectively. In psgRNA-gyrA-S83L, spacer sequence was introduced using primers gyrA_P12 and gyrA_P17, HDR template was amplified using primer pairs gyrA_P05 and gyrA_P18, and gyrA_P08 and gyrA_P19. In psgRNA-gyrA-D87N, spacer sequence was introduced using primers gyrA_P12 and gyrA_P20, HDR template was amplified using primer pairs gyrA_P05 and gyrA_P21, and gyrA_P08 and gyrA_P22. The verified constructs for gyrA engineering were transformed into E. coli W3110 carrying pCas9, and plated in LB containing kanamycin (50 µg ml^−1) for the selection of the pCas9 plasmid and spectinomycin (100 µg ml^−1) for the selection of psgRNA-gyrA-X. The plates were incubated at 30 °C. Plasmids were cured by growing the strains with 0.5 mM isopropylthiogalactoside with no antibiotics to lose first the psgRNA-gyrA plasmids. After losing the spectinomycin resistance, the strain was grown in LB with no antibiotics at 42 °C to lose the pCas plasmid. Colony PCR was performed on plasmid-free colonies using primers gyrA_P9 and gyrA_P10, and PCR products were sequenced to confirm the desired mutation

E. coli W3110 [2] = test: Checkerboard assay with PMBN;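 for checkerboard plate reading, Average values: OD600 read after 20 h incubation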
E. coli W3110 [3] = test: MIC by broth microdilution; type: cell-based, Escherichia coli; settings: Escherichia coli
Procedure, shortened: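 Exponential-phase cultures (OD600 0.5, 37 °C aerobic), diluted 100-fold in CAMHB, were added to twofold compound dilution series. Keio strains grown with 50 µg ml^−1 kanamycin. Plates incubated overnight at 37 °C, shaking at 600 r.p.m.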

[4] = E. coli W3110 gyrA D87N (FQ-resistant 2)
[5] = E. coli W3110 gyrA S83L (FQ-resistant 1)
[6] = E. coli W3110 gyrA S97L (LEI-800-resistant)

O=C(O)c1cn(C2CC2)c2cc(N3CCNCC3)c(F)cc2c1=O [CIP, ciprofloxacin]
MIC [1, 4]: > 1.5 µM | MIC [1, 5]: > 1.5 µM | MIC [1, 6]: 0.024 µM (≈ 0.00795 µg/mL) | checkerboard plate reading, Average values (E. coli W3110 [2]; Ciprofloxacin 1.5625 nM + PMBN 1 µM): 0.8906 | checkerboard plate reading, Average values (E. coli W3110 [2]; Ciprofloxacin 1.5625 nM + PMBN 2 µM): 0.8911 | checkerboard plate reading, Average values (E. coli W3110 [2]; Ciprofloxacin 1.5625 nM + PMBN 4 µM): 0.726 | checkerboard plate reading, Average values (E. coli W3110 [2]; Ciprofloxacin 1.5625 nM + PMBN 8 µM): 0.6303 | checkerboard plate reading, Average values (E. coli W3110 [2]; Ciprofloxacin 3.125 nM + PMBN 0 µM): 0.9278 | checkerboard plate reading, Average values (E. coli W3110 [2]; Ciprofloxacin 3.125 nM + PMBN 0.5 µM): 0.8723 | checkerboard plate reading, Average values (E. coli W3110 [2]; Ciprofloxacin 3.125 nM + PMBN 1 µM): 0.849 | checkerboard plate reading, Average values (E. coli W3110 [2]; Ciprofloxacin 3.125 nM + PMBN 2 µM): 0.8236 | checkerboard plate reading, Average values (E. coli W3110 [2]; Ciprofloxacin 3.125 nM + PMBN 4 µM): 0.7354 | checkerboard plate reading, Average values (E. coli W3110 [2]; Ciprofloxacin 3.125 nM + PMBN 8 µM): 0.666 | checkerboard plate reading, Average values (E. coli W3110 [2]; Ciprofloxacin 3.125 nM + PMBN 16 µM): 0.8076 | checkerboard plate reading, Average values (E. coli W3110 [2]; Ciprofloxacin 3.125 nM + PMBN 32 µM): 0.5963 | checkerboard plate reading, Average values (E. coli W3110 [2]; Ciprofloxacin 6.25 nM + PMBN 0 µM): 0.8608 | checkerboard plate reading, Average values (E. coli W3110 [2]; Ciprofloxacin 6.25 nM + PMBN 0.5 µM): 0.801 | checkerboard plate reading, Average values (E. coli W3110 [2]; Ciprofloxacin 6.25 nM + PMBN 1 µM): 0.7994 | checkerboard plate reading, Average values (E. coli W3110 [2]; Ciprofloxacin 6.25 nM + PMBN 2 µM): 0.8003 | checkerboard plate reading, Average values (E. coli W3110 [2]; Ciprofloxacin 6.25 nM + PMBN 4 µM): 0.7289 | checkerboard plate reading, Average values (E. coli W3110 [2]; Ciprofloxacin 6.25 nM + PMBN 8 µM): 0.6534 | checkerboard plate reading, Average values (E. coli W3110 [2]; Ciprofloxacin 6.25 nM + PMBN 16 µM): 0.5862 | checkerboard plate reading, Average values (E. coli W3110 [2]; Ciprofloxacin 6.25 nM + PMBN 32 µM): 0.4866 | checkerboard plate reading, Average values (E. coli W3110 [2]; Ciprofloxacin 12.5 nM + PMBN 0 µM): 0.8404 | checkerboard plate reading, Average values (E. coli W3110 [2]; Ciprofloxacin 12.5 nM + PMBN 0.5 µM): 0.7355 | checkerboard plate reading, Average values (E. coli W3110 [2]; Ciprofloxacin 12.5 nM + PMBN 1 µM): 0.7301 | checkerboard plate reading, Average values (E. coli W3110 [2]; Ciprofloxacin 12.5 nM + PMBN 2 µM): 0.723 | checkerboard plate reading, Average values (E. coli W3110 [2]; Ciprofloxacin 12.5 nM + PMBN 4 µM): 0.67 | checkerboard plate reading, Average values (E. coli W3110 [2]; Ciprofloxacin 12.5 nM + PMBN 8 µM): 0.5682 | checkerboard plate reading, Average values (E. coli W3110 [2]; Ciprofloxacin 12.5 nM + PMBN 16 µM): 0.6754 | checkerboard plate reading, Average values (E. coli W3110 [2]; Ciprofloxacin 12.5 nM + PMBN 32 µM): 0.5017 | checkerboard plate reading, Average values (E. coli W3110 [2]; Ciprofloxacin 25 nM + PMBN 0 µM): 0.4892 | checkerboard plate reading, Average values (E. coli W3110 [2]; Ciprofloxacin 25 nM + PMBN 0.5 µM): 0.5201 | checkerboard plate reading, Average values (E. coli W3110 [2]; Ciprofloxacin 25 nM + PMBN 1 µM): 0.4961 | checkerboard plate reading, Average values (E. coli W3110 [2]; Ciprofloxacin 25 nM + PMBN 2 µM): 0.4386 | checkerboard plate reading, Average values (E. coli W3110 [2]; Ciprofloxacin 25 nM + PMBN 4 µM): 0.4173 | checkerboard plate reading, Average values (E. coli W3110 [2]; Ciprofloxacin 25 nM + PMBN 8 µM): 0.2541 | checkerboard plate reading, Average values (E. coli W3110 [2]; Ciprofloxacin 25 nM + PMBN 16 µM): 0.196 | checkerboard plate reading, Average values (E. coli W3110 [2]; Ciprofloxacin 25 nM + PMBN 32 µM): 0.2103 | checkerboard plate reading, Average values (E. coli W3110 [2]; Ciprofloxacin 50 nM + PMBN 0 µM): 0.1991 | checkerboard plate reading, Average values (E. coli W3110 [2]; Ciprofloxacin 50 nM + PMBN 0.5 µM): 0.2079 | checkerboard plate reading, Average values (E. coli W3110 [2]; Ciprofloxacin 50 nM + PMBN 1 µM): 0.2136 | checkerboard plate reading, Average values (E. coli W3110 [2]; Ciprofloxacin 50 nM + PMBN 2 µM): 0.1771 | checkerboard plate reading, Average values (E. coli W3110 [2]; Ciprofloxacin 50 nM + PMBN 4 µM): 0.1678 | checkerboard plate reading, Average values (E. coli W3110 [2]; Ciprofloxacin 50 nM + PMBN 8 µM): 0.1671 | checkerboard plate reading, Average values (E. coli W3110 [2]; Ciprofloxacin 50 nM + PMBN 16 µM): 0.1685 | checkerboard plate reading, Average values (E. coli W3110 [2]; Ciprofloxacin 50 nM + PMBN 32 µM): 0.1738 | MIC (E. coli W3110 [2]; Escherichia coli, W3110): 0.05 µM | MIC E. coli + 8 μM PMBN (E. coli W3110 [2]; LPS disruption (pharmacological)): 0.024 µM | synergy with PMBN (E. coli W3110 [2]; checkerboard): does not have an effect and none | MSC (E. coli W3110 [2]; checkerboard with PMBN, E. coli W3110): 0.025 µM | MIC (E. coli W3110 [3]; W3110): 7.8 ng/mL | MIC (E. coli W3110 [3]; W3110, read-out: MIC E. coli WT strain): 0.024 µM

O=S(=O)(NCCNCc1ccc(-c2ccc(F)nc2)cc1)c1cccc2cnccc12 [Compound 60]
susceptibility of gyrA S97L mutant [1]: resistant | MIC [1, 4]: 50 µM (≈ 21.8 µg/mL) | MIC [1, 5]: 25 µM (≈ 10.9 µg/mL) | MIC [1, 6]: > 50 µM | MIC (E. coli W3110 [3]; W3110, read-out: MIC E. coli W3110): 6.25 µM

O=S(=O)(NC[C@@H]1CC[C@H](c2ccc(-c3ccc(F)cc3)cc2)N1)c1cccc2cnccc12 [Compound 101]
susceptibility of gyrA S97L mutant [1]: resistant | MIC [1, 4]: 3.1 µM (≈ 1.43 µg/mL) | MIC [1, 5]: 3.1 µM (≈ 1.43 µg/mL) | MIC [1, 6]: > 50 µM | MIC (E. coli W3110 [3]; W3110, WT, broth microdilution, read-out: MIC E. coli W3110): 1.6 µM
